Results taken from PubChem BioAssay (NCI).
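Five concentrations, 48 hours, 96-well plates. Abbreviation: GI50, concentration required for 50% inhibition of growth. TGI marks complete inhibition of growth.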

Columns and labels:
Experiment in all cases: growth of human tumour cells (NCI), 48 h
[1] = test system: ACHN renal
[2] = test system: SF-268 CNS
[3] = test system: U251 CNS
[4] = test system: OVCAR-8 ovarian
[5] = test system: RXF 393 renal
[6] = test system: LOX IMVI melanoma
[7] = test system: HT29 colon
[8] = test system: NCI-H23 lung
[9] = test system: 786-0 renal

SMILES	TGI [1] [µM]	TGI [2] [µM]	TGI [3] [µM]	TGI [4] [µM]	TGI [5] [µM]	TGI [6] [µM]	TGI [7] [µM]	TGI [8] [µM]	TGI [9] [µM]	GI50 [1] [µM]	GI50 [2] [µM]	GI50 [3] [µM]	GI50 [4] [µM]	GI50 [5] [µM]	GI50 [6] [µM]	GI50 [7] [µM]	GI50 [8] [µM]	GI50 [9] [µM]
Cc1cc(C)n(C2=NS(=O)(=O)c3ccccc3N2C)n1	> 100	> 100	> 100	> 100	> 100	> 100	> 100	> 100	> 100	–	–	–	–	–	–	–	–	–
CCNCCNc1cc(-c2ccc(C#N)cc2)c(C#N)c2nc3ccccc3n12	5.73	14.1	5.2	16.9	4.1	3.29	9.82	21.3	7.46	2.34	3.42	2.34	5.15	1.74	1.72	3.1	5.3	2.2
Cc1cc2c(cc1Cl)S/C(=C/C(=O)O)C(Nc1cccc3nsnc13)=NS2(=O)=O	> 64.9	> 84.4	> 71.7	> 74.8	> 68.5	> 70.1	> 63.1	> 61.7	> 62.2	> 52.3	49.2	35.6	> 53.2	> 52.7	53.4	6.17	35.2	36.5
O=C1/C(=C/c2ccc([N+](=O)[O-])cc2)COc2ccc(O)cc21	4.12	> 100	4.13	> 100	17.7	3.23	–	36.3	11.7	2.02	15.3	1.99	5.88	2.45	1.68	–	7.83	3.05
Cc1cccc(/C(Br)=C2/OC(=O)c3ccccc32)c1	> 100	> 100	> 100	> 100	> 100	–	> 100	> 100	> 100	–	–	–	–	–	–	–	–	–
CCOC(=O)N1CCN(CCCCCOc2ccccc2C2CCCCC2)CC1	23.8	35.1	19	–	–	12.5	12	5.93	3.78	10.6	15.3	5.05	–	–	2.85	3.08	3.12	1.86
COC(=O)C1C(=O)N(CCc2c[nH]c3ccccc23)C[C@@H]2CCC(=O)C[C@H]12 (some centres undefined)	–	> 100	> 100	> 100	> 100	> 100	> 100	> 100	> 100	–	–	–	–	–	–	–	–	–
c1ccc(-c2nc(N3CCCNCC3)c3nc(-c4ccccc4)oc3n2)cc1	3.11	3.62	3.31	4.93	3.29	–	3.72	3.23	3.45	1.71	1.76	1.74	2.13	1.66	–	1.76	1.71	1.73
Cc1ccc2oc(=O)c(-c3ccccc3)nc2c1	> 100	> 100	–	> 100	–	62.9	> 100	90.7	> 100	–	–	–	–	–	–	–	–	–
C=CC1=C(C)C2=NC1=CC1=NC(=CC3=C(C)C4=C(O)[C@H](C(=O)OC)C(=C5NC(=C2)[C@@H](C)[C@@H]5CCC(=O)O)C4=N3)C(CC)=C1C	7.21	> 100	> 41.2	> 100	9.1	–	–	9.12	> 28.2	–	–	–	–	–	–	–	–	–
COc1ccc(-c2cnoc2-c2cc(OC)c3c(c2)OCCO3)cc1	> 58.9	> 100	> 100	> 59.1	–	22.5	20.8	> 100	> 56.5	0.108	0.127	0.0521	0.0524	–	0.0632	0.0331	0.0599	0.0629
O=C1c2ccccc2-c2c1c1ccccc1c(=O)n2CCNCCn1c2c(c3ccccc3c1=O)C(=O)c1ccccc1-2	> 25	> 25	> 25	> 25	> 25	> 25	–	> 25	> 25	> 25	> 25	> 25	> 25	> 25	> 25	–	> 25	12.2
O=C1/C(=C/c2cccc([N+](=O)[O-])c2)Sc2scc(-c3ccc([N+](=O)[O-])cc3)[n+]21	49.9	–	> 100	> 100	–	46.3	38.8	35.5	38.3	–	–	–	–	–	–	–	–	–
CCCCCCCCCCCCCC[n+]1cccc(C(N)=O)c1	17.9	4.48	2.11	6.22	–	–	4.63	13.6	2.82	3.46	1.66	0.652	2.12	–	–	0.778	2.28	1.32
